The assay has as its system EL-4 cells (mouse-derived cancer cells). The experiment in a line: Measurement of antitumor effect: survival of C57BL/6 mice after intraperitoneal injection of EL-4 cells. The format is in vivo. The settings on record: for Number of surviving mice: C57BL/6 mice with 5×10^4 EL-4 cells i.p., reserpine 200 μg/kg s.c. every four days. How it is done: Lymphocytes were collected from the spleen of a C57BL/6 mouse by first aseptically taking out the spleen, and mashing up the spleen with a pair of tweezers in a culture dish having a culture solution containing blood serum from cattle embryo The solution including the flaked spleen was filtrated through a mesh to obtain lymphocyte suspension. The lymphocyte suspension was transferred by 50 ml to a centrifuging tube with a pipette and centrifuged at 1500 rpm for 10 minutes.
After centrifugation, supernatant fluid was removed, and a culture solution was added to obtain 2×10^6/ml of solution. The resultant solution thus obtained was transferred to a culture dish containing solid-phase anti-CD3 antibody from a mouse and further cultivated for 4 days on a continuing basis. The resultant solution was farther rinsed with phosphate buffer (occasionally abbreviated as PBS) two times, thus to prepare lymphocytes before heating treatment.
After cultivating EL-4 cells (mouse-derived cancer cells) at 37° C. in an atmosphere of 5% carbon dioxide gas in a flask for 3 days, 50 ml of culture solution containing El-4 cells were transferred to a centrifuging tube with a pipette and centrifuged at 1500 rpm for 10 minutes. After centrifugation, supernatant fluid was removed, and pH-adjusted RPMI1640 culture medium was added thereto, and brought into suspension. Then, the resultant solution thus obtained was again centrifuged at 1500 rpm for 10 minutes, and hereafter, supernatant fluid was removed. Again supernatant fluid was removed, and the pH-adjusted RPMI1640 culture medium prepared previously was added thereto, and brought into suspension. Into the abdominal cavity of each C57BL/6 mouse, 5×10^4 of EL-4 cells in the ultimate solution resultantly obtained was injected to introduce the cancer cells thereinto.
After introducing the EL-4 cells, 3×10^6 of activated lymphocytes treated with heat, which were prepared in Example 1 described above were administered intravenously with administering subcutaneously reserpine thereto. To each mouse of a subject group, reserpine was subcutaneously given by 200 μg/kg every four days together with the […] lymphocytes, and to another control group composed of twelve mice, only the reserpine was given by 200 μg/kg every four days. The reserpine of Rauwolfia serpentina extract was used in this embodiment, but it may be made from a compound extracted from Rauwolfia serpentina or other compounds. Although the reserpine solely may be used as mentioned above, but it may be used as a secondary agent with other primary additives.

On to `COC(=O)[C@H]1[C@H]2C[C@@H]3c4[nH]c5cc(OC)ccc5c4CCN3C[C@H]2C[C@@H](OC(=O)c2cc(OC)c(OC)c(OC)c2)[C@@H]1OC` [Resrpine, reserpine], for which the “Number of surviving mice” value is recorded as 12 (lapsed days 23); 12 (lapsed days 24); 12 (lapsed days 25); 11 (lapsed days 26); 11 (lapsed days 27); 11 (lapsed days 28). Also, the “Number of surviving mice” value was determined as 9 (lapsed days 29); 8 (lapsed days 30); 8 (lapsed days 31); 6 (lapsed days 32); 6 (lapsed days 33); 4 (lapsed days 34). Where the note is “lapsed days 35”, the “Number of surviving mice” value worked out at 3. Further, the “antitumor effect (survival rate of mice observed with time)” value (result in words, summary of Table 1, EL-4 bearing C57BL/6 mice) is reported as “brings about an antitumor effect”.

Source of the values: patent US20040161415A1, “Antitumor and antiviral medications and method for producing the same” (Lymphotec Inc., priority 2001, published 2004).
